Laboratory results taken from patent US11564911B2, “Small molecule dual-inhibitors of TRPV4 and TRPA1 for sanitizing and anesthetizing” (Duke University, priority 2016, dated 2023).

Assays:
TRPV4 [1] = molecular target: TRPV4 (Rattus norvegicus, UniProt Q9ERZ8); experiment: Ca++ imaging in primary astrocytes, GSK101 stimulation; assay type: cell-based; details: 5 nM GSK101
Protocol: FIGS. 28A-28B: Compound 16-8 inhibits TRPV4 in I° cells more potently than GSK205. […] Inset: Chondrocytes responding to activation with GSK101, fura-2 Ca++ imaging; right-hand image taken at 5 sec after GSK101 application. […] (FIG. 28B) 1° (primary) astrocytes (rat); dose-response comparison between 16-8 and GSK205 in response to 5 nM GSK101. Inset: Astrocytes responding to activation with GSK101; right-hand image taken at 5 sec after GSK101 application (mean±SEM, n=5 independent expts, 200 cells/expt; *p<0.05, t-test).
Astrocyte cultures were conducted following established protocols^64-66. Astrocytes were prepared from Sprague Dawley rat embryos (E18). Briefly, the isolated cortices were minced, and then incubated with trypsin and DNase. Dissociated cells were suspended in Dulbeccco's Modified Eagle's Medium (DMEM) supplemented with 10% fetal calf serum and penicillin/streptomycin (100 U/ml and 100 μg/ml, respectively). Thereafter, cell sus-pensions were plated in 75 cm^2 tissue culture flasks (10×10^6 cells/flask) which were pre-coated with poly-L-lysine (10 μg/ml). The cells were maintained in a […] incubator at 37° C.

[2] = test system: primary mouse keratinocytes (1° MK); experiment: ET1 secretion by non-stimulated primary mouse keratinocytes (ELISA); assay type: cell-based
Protocol: FIGS. 8A-8D: Central role for KC TRPV4 in UVB-evoked Ca^++ signaling and nocifensive behavior—ET1-related supplementary findings. (FIG. 8A) Augmentation of GSK101-evoked Ca^++ signaling by ET1. Shown are averaged Ca^++ measurements (fura-2) in response to 5 nM GSK101. Note the increase in signal in response to co-exposure to ET1. (FIG. 8B) ET1 secretion by non-stimulated 1° MK depends on TRPV4 and PLC. Shown are relative ET1 concentrations (determined by ELISA, pg/mL; vehicle-treated and WT control normalized to 100) in supernatant of non-stimulated 1° MK. Note the clear dependence on TRPV4, as indicated by a 50% reduction in Trpv4^−/− 1° MK. […] There is also down-regulation of ET1 secretion by a specific inhibitor of PLC (U73122), and by an ET-convertase inhibitor, CGS35066, which served as a control compound. In addition, PLC-inhibitor robustly affects ET1 secretion in WT and Trpv4^−/− 1° MK. (FIG. 8C) ET1 expression by UVB-exposed 1° MK depends on TRPV4 and PLC—immunocytochemistry. Shown is specific ET1 immunolabeling in 1° MK, exposed to UVB using the UVB-LEDs, as for Ca^++ imaging. Use of the UVB-LED device precluded application of a ET1 ELISA, only irradiated cells could be examined. […] (FIG. 8D) ET1 expression by UVB-exposed 1° MK depends on TRPV4 and PLC—quantification of immunocytochemistry.

[3] = test system: primary mouse keratinocytes (1° MK); experiment: ET1 immunocytochemistry in UVB-exposed primary mouse keratinocytes; assay type: cell-based; details: 295 nm UVB-LED
Protocol: 1° MK were exposed to UVB using the UV optical system (295 nm LED). 24 hours later the cells were fixed and fluorescently immunolabeled for ET1. Digital images were captured and subjected to morphometry.
Mouse keratinocytes were cultured on collagen coated quartz coverslips and then stimulated from the bottom using the previously mentioned UV optical system using the 295 nm LED. 24 hours later the cells were fixed in 4% formaldehyde in PBS for 20 minutes, permeabilized with 0.1% Triton X-100 in PBS for 10 minutes, washed, then blocked in 10% normal goat serum in PBS for 45 minutes. Coverslips were incubated overnight with primary antibody mouse anti-ET1 (1:200; Abcam), washed three times in PBS and incubated with secondary antibody for 2 hours at 25° C. Coverslips were washed three times in PBS, once with double-distilled H2O. Digital images were captured using a 40× immersion lens on the BX61 Olympus upright microscope. Morphometric analysis was conducted using ImageJ freeware with tailored regions-of-interest.

[4] = test system: mice, UVB-exposed hind paws; experiment: UVB-evoked nocifensive behavior after topical GSK205 (Hargreaves, von Frey); assay type: in vivo, mouse
Protocol: Behavioral tests were performed to evaluate the decrease in withdrawal thresholds in response to mechanical von Frey hair or thermal stimuli applied to hind paws. […]. These withdrawal thresholds were ascertained before and after UV exposure. Mice were exposed using a Bio Rad Gel Doc 2000 UV transilluminator (302 nm) for 5 minutes with an exposure of 600 mJ/cm^2, 3-5 days after the last application of tamoxifen/oil.
GSK205 topical treatment: A viscous solution of 68% EtOH/5% glycerol plus 1 mM or 5 mM GSK205 (none for control) was applied to hindpaws by rubbing in 20 μL, applied at time-points 1 hour and again 10 min before UV exposure.
Behavioral tests were performed to evaluate the decrease in withdrawal thresholds in response to mechanical or thermal stimuli applied to hind paws. These withdrawal thresholds were ascertained before and after UVB exposure. Mice were confined by plexi-glass enclosures on top of 25×26 cm Bio Rad Gel Doc 2000 UV transilluminator (302 nm), and otherwise allowed to openly explore this environment. UV-exposure lasted for 5 minutes with an exposure of 600 mJ/cm^2.
Hindpaw mechanical withdrawal thresholds were determined by the automated von Frey hair method, using a 0.5 mm diameter stainless steel filament, part of an automated plantar touch stimulator (Ugo Basile, Modena, Italy). Relevant detail included pre-test acclimatization in a quiet room for 30 min, conducting the test at the same time of day and blinded observers. The stimulus was delivered to the hindpaw, automatically discontinued upon withdrawal, and its intensity recorded automatically. 6-8 trials per animal were conducted, with equal exposure of both hindpaws, leading to an average withdrawal threshold. Results are reported as […], which was calculated by subtracting post-treatment from pre-treatment measurements, expressed as % or relative to 1.0.
Hindpaw thermal (hot) withdrawal thresholds were determined by the well-established Hargreaves' method, using an infra-red thermal stimulation device that delivers the stimulus from underneath the hindpaw combined with automatic shut-off upon withdrawal (Ugo Basile). Stimulation and measurements were conducted as described for von Frey hair testing. A cutoff of 20 sec was set to prevent tissue damage.

TRPV4 [5] = molecular target: TRPV4 (Homo sapiens, UniProt Q9HBA0); experiment: UVB-evoked Ca++ transient in TRPV4-transfected HEK293T cells; assay type: cell-based; design: expressed in transfected cells; details: preexposure to 20 μM GSK205
TRPV4 (Homo sapiens, UniProt Q9HBA0), sequence (Q9HBA0 whole entry, species assumed): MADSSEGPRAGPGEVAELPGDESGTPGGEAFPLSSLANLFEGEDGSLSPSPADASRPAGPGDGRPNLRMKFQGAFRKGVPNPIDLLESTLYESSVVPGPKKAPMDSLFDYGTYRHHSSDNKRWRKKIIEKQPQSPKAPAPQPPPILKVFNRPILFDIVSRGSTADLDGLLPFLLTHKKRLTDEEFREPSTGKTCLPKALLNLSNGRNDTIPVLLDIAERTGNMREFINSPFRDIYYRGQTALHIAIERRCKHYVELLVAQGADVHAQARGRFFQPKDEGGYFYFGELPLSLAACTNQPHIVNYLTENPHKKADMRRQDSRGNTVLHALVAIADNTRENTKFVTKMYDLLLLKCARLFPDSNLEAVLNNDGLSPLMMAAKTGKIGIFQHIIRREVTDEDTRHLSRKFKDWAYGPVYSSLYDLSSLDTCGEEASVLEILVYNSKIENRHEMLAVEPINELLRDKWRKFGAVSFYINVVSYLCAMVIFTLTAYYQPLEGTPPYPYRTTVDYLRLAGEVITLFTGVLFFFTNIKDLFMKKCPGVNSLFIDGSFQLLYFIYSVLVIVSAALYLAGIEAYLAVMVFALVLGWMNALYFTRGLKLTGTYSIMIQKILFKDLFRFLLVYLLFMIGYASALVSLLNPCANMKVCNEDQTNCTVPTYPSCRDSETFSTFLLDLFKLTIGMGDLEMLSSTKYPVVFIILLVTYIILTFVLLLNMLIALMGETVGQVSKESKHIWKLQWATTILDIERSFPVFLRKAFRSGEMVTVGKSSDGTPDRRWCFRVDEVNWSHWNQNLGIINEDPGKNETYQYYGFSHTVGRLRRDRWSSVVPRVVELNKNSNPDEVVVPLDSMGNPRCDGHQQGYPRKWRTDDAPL
Source text: (FIG. 2B) Focusing properties of the ball lens. […] (FIG. 2E) TRPV3 activation experiment. […] (FIG. 2F) TRPV4 selective activator GSK101-related findings.
To assess whether TRPV4 is sufficient for the UVB-evoked Ca++ influx, we introduced high levels of TRPV4 into HEK293 epithelial cells. TRPV4 expression endowed these cells with the ability to generate robust Ca++ signaling in response to UVB (FIG. 2G). Moreover, if they were pre-exposed to GSK205, the response was blocked. Thus, heterologous TRPV4 expression is sufficient for UVB radiation to cause a cellular Ca++ transient.

TRPV4 (Rattus norvegicus, UniProt Q9ERZ8), sequence (Q9ERZ8 whole entry): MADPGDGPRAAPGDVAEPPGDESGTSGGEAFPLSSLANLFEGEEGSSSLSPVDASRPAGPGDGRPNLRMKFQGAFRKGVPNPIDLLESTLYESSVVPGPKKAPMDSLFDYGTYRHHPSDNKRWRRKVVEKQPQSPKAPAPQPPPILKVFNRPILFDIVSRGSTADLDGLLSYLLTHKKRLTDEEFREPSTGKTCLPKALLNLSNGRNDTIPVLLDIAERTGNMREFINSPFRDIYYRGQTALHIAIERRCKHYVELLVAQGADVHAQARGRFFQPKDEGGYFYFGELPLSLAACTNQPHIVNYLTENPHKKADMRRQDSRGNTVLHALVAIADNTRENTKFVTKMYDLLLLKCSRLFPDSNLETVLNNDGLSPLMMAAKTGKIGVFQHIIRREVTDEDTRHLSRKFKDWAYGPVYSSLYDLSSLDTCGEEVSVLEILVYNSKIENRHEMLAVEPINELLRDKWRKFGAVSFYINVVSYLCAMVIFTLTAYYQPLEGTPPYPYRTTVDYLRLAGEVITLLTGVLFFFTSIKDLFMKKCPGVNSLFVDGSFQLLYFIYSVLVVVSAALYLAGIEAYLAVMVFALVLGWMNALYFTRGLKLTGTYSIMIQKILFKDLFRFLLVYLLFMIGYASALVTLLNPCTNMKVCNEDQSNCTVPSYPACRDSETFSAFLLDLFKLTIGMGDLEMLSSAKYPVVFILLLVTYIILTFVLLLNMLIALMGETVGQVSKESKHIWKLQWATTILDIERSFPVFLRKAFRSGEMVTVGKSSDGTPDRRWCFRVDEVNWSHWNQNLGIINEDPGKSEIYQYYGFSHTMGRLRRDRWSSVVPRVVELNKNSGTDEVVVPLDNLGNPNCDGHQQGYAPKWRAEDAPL

Row | Compound | potency versus GSK205, dose-response of peak ΔCa++ (TRPV4 [1]) | ET1 secretion, supernatant of non-stimulated 1° MK [2] | ET1 immunoreactivity in UVB-exposed 1° MK [3] | delay in thermal hypersensitivity after UVB ([4]; topical 1 mM GSK205, WT mice) | off-target effects on withdrawal behavior ([4]; topical 5 mM GSK205, Trpv4−/− mice vs vehicle) | sensitivity to von Frey hair mechanical stimulation after UVB ([4]; topical 5 mM GSK205, WT mice) | thermally-evoked nocifensive behavior after UVB ([4]; topical 5 mM GSK205, WT mice) | UVB-evoked Ca++-signal in TRPV4-transfected HEK293T cells (TRPV4 [5])
1 | CN(CCc1ccc(Nc2nc(-c3ccccc3)cs2)cc1)Cc1ccccc1 [Compound 16-8] | significantly increased potency | – | – | – | – | – | – | –
2 | CN(CCc1ccc(Nc2nc(-c3cccnc3)cs2)cc1)Cc1ccccc1 [GSK205] | – | significant down-regulation | significant down-regulation | ~24 h | did not elicit off-target effects | significantly reduced sensitivity | sustained attenuation | virtually eliminates
